Structures are written as SMILES.

NAMPT enzyme, sequence (P43490 whole entry, species assumed): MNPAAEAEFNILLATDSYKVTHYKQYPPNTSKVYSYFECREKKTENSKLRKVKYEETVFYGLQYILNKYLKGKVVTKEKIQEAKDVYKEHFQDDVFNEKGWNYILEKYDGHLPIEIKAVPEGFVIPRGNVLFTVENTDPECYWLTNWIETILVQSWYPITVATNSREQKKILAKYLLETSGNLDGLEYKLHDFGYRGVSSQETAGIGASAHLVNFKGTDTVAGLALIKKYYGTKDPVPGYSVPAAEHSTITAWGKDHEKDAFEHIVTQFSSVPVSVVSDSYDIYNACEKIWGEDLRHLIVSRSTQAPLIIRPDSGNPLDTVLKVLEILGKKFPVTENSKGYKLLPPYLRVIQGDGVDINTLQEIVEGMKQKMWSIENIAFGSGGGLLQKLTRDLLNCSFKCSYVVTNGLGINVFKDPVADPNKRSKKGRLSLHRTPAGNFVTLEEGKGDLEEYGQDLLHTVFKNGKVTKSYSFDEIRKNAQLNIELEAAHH

One assay addresses NAMPT enzyme (Homo sapiens (Human), UniProt P43490). Briefly: Enzyme Assay and NMN Detection (NAMPT reaction, fluorescence detection of NMN). The assay is classed as biochemical. The settings on record: Table B-1; NAMPT activation, NMN formation. Put shortly: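 NMN formed was read at ex380/em460 after acetophenone/KOH derivatization and formic acid addition, using a same-day calibration curve. Final conditions: NAMPT 16 nM, nicotinamide 5 uM, PRPP 6.25 uM, ATP 120 uM, pyrophosphatase 0.04 U/ml, pH 7.5 HEPES buffer with MgCl2 and TCEP, 2 h at room temperature.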
As a reminder, the EC50 is the concentration needed to bring the measured effect to its halfway point. Low values mean a more potent agent, high ones a less potent agent. The compound `O=C(NCc1cn[nH]c1)Nc1ccc(C(=O)Nc2ccccc2Cl)cc1` [4-(3-((1H-pyrazol-4-yl)methyl)ureido)-N-(2-chlorophenyl)benzamide] yielded an EC50 of 100 to 2000 nM.
Compound `COc1ccccc1NC(=O)c1ccc(NC(=O)NCc2cn[nH]c2)cc1` [4-(3-((1H-pyrazol-4-yl)methyl)ureido)-N-(2-methoxyphenyl)benzamide] gave an EC50 of 100 to 2000 nM.
In the case of `COc1cccc(NC(=O)c2ccc(NC(=O)NCc3cn[nH]c3)cc2)c1` [4-(3-((1H-pyrazol-4-yl)methyl)ureido)-N-(3-methoxyphenyl)benzamide], the concentration giving a half-maximal response (EC50) fell in the range of 100 to 2000 nM.
The same measure, in the same setting: the figure for `O=C(NCc1cn[nH]c1)Nc1ccc(C(=O)Nc2ccc(Cl)cc2)cc1` [4-(3-((1H-pyrazol-4-yl)methyl)ureido)-N-(4-chlorophenyl)benzamide] is 100 to 2000 nM.
The same measure, in the same setting: to `COc1ccc(NC(=O)c2ccc(NC(=O)NCc3cn[nH]c3)cc2)cc1` [4-(3-((1H-pyrazol-4-yl)methyl)ureido)-N-(4-methoxyphenyl)benzamide] belongs 100 to 2000 nM.

Still in this assay, the particulars now being: Table B-2; NAMPT activation, NMN formation.
For the compound `O=C(NCc1ccncc1)Nc1ccc(NS(=O)(=O)c2ccccc2Cl)cc1` [2-Chloro-N-[4-(3-pyridin-4-ylmethyl-ureido)-phenyl]-benzenesulfonamide], the EC50 was less than 100 nM.
On the same count and under the same terms, the figure for `COc1ccccc1S(=O)(=O)Nc1ccc(NC(=O)NCc2ccncc2)cc1` [2-Methoxy-N-[4-(3-pyridin-4-ylmethyl-ureido)-phenyl]-benzenesulfonamide] is 100 to 2000 nM; for `COC(=O)c1ccccc1CNS(=O)(=O)c1ccc(NC(=O)NCc2ccncc2)cc1` [2-{[4-(3-Pyridin-4-ylmethyl-ureido)-benzenesulfonylamino]-methyl}-benzoic acid methyl ester] it is less than 100 nM.
Compound `O=C(NCc1ccncc1)Nc1cccc(C(=O)O)c1` [3-(3-(Pyridin-4-ylmethyl)ureido)benzoic acid] came in with an EC50 of more than 20000 nM.
In turn, `O=C(NCc1ccncc1)Nc1ccc(NS(=O)(=O)c2cccc(Cl)c2)cc1` [3-Chloro-N-[4-(3-pyridin-4-ylmethyl-ureido)-phenyl]-benzenesulfonamide] registered an EC50 of less than 100 nM.
Compound `COc1cccc(S(=O)(=O)Nc2ccc(NC(=O)NCc3ccncc3)cc2)c1` [3-Methoxy-N-[4-(3-pyridin-4-ylmethyl-ureido)-phenyl]-benzenesulfonamide] came in with an EC50 of less than 100 nM.
`COC(=O)c1cccc(CNS(=O)(=O)c2ccc(NC(=O)NCc3ccncc3)cc2)c1` [3-{[4-(3-Pyridin-4-ylmethyl-ureido)-benzenesulfonylamino]-methyl}-benzoic acid methyl ester] displayed an EC50 of 100 to 2000 nM.
Consider `O=C(NCc1ccncc1)Nc1ccc(C(=O)NCCN2CCCC2)cc1` [4-(3-(Pyridin-4-ylmethyl)ureido)-N-(2-(pyrrolidin-1-yl)ethyl)benzamide], for which the EC50 is 2000 to 5000 nM.
On the same count and under the same terms, to `O=C(NCc1ccncc1)Nc1ccc(C(=O)Nc2ccccc2OC(F)(F)F)cc1` [4-(3-(Pyridin-4-ylmethyl)ureido)-N-(2-(trifluoromethoxy)phenyl)benzamide] belongs 100 to 2000 nM; to `Cc1cccc(NC(=O)c2ccc(NC(=O)NCc3ccncc3)cc2)c1` [4-(3-(Pyridin-4-ylmethyl)ureido)-N-(m-tolyl)benzamide], 100 to 2000 nM; to `Cc1ccccc1NC(=O)c1ccc(NC(=O)NCc2ccncc2)cc1` [4-(3-(Pyridin-4-ylmethyl)ureido)-N-(o-tolyl)benzamide], 100 to 2000 nM.
For `Cc1ccc(NC(=O)c2ccc(NC(=O)NCc3ccncc3)cc2)cc1` [4-(3-(Pyridin-4-ylmethyl)ureido)-N-(p-tolyl)benzamide], the EC50 was in the range of 2000 to 5000 nM.
The same measure, in the same setting: to `O=C(NCc1ccncc1)Nc1ccc(C(=O)Nc2cccs2)cc1` [4-(3-(Pyridin-4-ylmethyl)ureido)-N-(thiophen-2-yl)benzamide] belongs 2000 to 5000 nM; to `NC(=O)c1ccc(NC(=O)NCc2ccncc2)cc1` [4-(3-(Pyridin-4-ylmethyl)ureido)benzamide], 5000 to 20000 nM.
The same measure, in the same setting: the figure for `O=C(NCc1ccncc1)Nc1ccc(C(=O)O)cc1` [4-(3-(Pyridin-4-ylmethyl)ureido)benzoic acid] is more than 20000 nM.
Same read-out and setting: to `O=C(NCc1ccncc1)Nc1ccc(C(=O)Nc2cccc(OC(F)(F)F)c2)cc1` [4-(3-(pyridin-4-ylmethyl)ureido)-N-(3-(trifluoromethoxy)phenyl)benzamide] belongs 2000 to 5000 nM; to `O=C(NCc1ccncc1)Nc1ccc(C(=O)Nc2ccc(OC(F)(F)F)cc2)cc1` [4-(3-(pyridin-4-ylmethyl)ureido)-N-(4-(trifluoromethoxy)phenyl)benzamide], 100 to 2000 nM; to `O=C(NCc1ccncc1)Nc1ccc(C(=O)Nc2cncnc2)cc1` [4-(3-(pyridin-4-ylmethyl)ureido)-N-(pyrimidin-5-yl)benzamide], 100 to 2000 nM.
The compound `O=C(NCc1ccncc1)Nc1ccc(C(=O)NC2CCOC2)cc1` (stereo not shown) [4-(3-(pyridin-4-ylmethyl)ureido)-N-(tetrahydrofuran-3-yl)benzamide] returned an EC50 of 5000 to 20000 nM.
Still for that read-out and setting: to `O=C(NCc1ccncc1)Nc1ccc(S(=O)(=O)NC2CCCc3ccccc32)cc1` (stereo not shown) [4-(3-Pyridin-4-ylmethyl-ureido)-N-(1,2,3,4-tetrahydro-naphthalen-1-yl)-benzenesulfonamide] belongs less than 100 nM; to `O=C(NCc1ccncc1)Nc1ccc(S(=O)(=O)NCCN2CCCC2)cc1` [4-(3-Pyridin-4-ylmethyl-ureido)-N-(2-pyrrolidin-1-yl-ethyl)-benzensulfonamide], 2000 to 5000 nM.
The compound `O=C(NCc1ccncc1)Nc1ccc(S(=O)(=O)NCc2ccccc2OC(F)(F)F)cc1` [4-(3-Pyridin-4-ylmethyl-ureido)-N-(2-trifluoromethoxy-benzyl)-benzenesulfonamide] had an EC50 of less than 100 nM.
On the same count and under the same terms, to `O=C(NCc1ccncc1)Nc1ccc(S(=O)(=O)NCc2ccccc2C(F)(F)F)cc1` [4-(3-Pyridin-4-ylmethyl-ureido)-N-(2-trifluoromethyl-benzyl)-benzenesulfonamide] belongs 100 to 2000 nM; to `O=C(NCc1ccncc1)Nc1ccc(S(=O)(=O)NCc2cccc(OC(F)(F)F)c2)cc1` [4-(3-Pyridin-4-ylmethyl-ureido)-N-(3-trifluoromethoxy-benzyl)-benzenesulfonamide], 100 to 2000 nM.
The compound `O=C(NCc1ccncc1)Nc1ccc(S(=O)(=O)NCc2cccc(C(F)(F)F)c2)cc1` [4-(3-Pyridin-4-ylmethyl-ureido)-N-(3-trifluoromethyl-benzyl)-benzenesulfonamide] displayed an EC50 of 100 to 2000 nM.
Compound `O=C(NCc1ccncc1)Nc1ccc(S(=O)(=O)NCc2ccc(OC(F)(F)F)cc2)cc1` [4-(3-Pyridin-4-ylmethyl-ureido)-N-(4-trifluoromethoxy-benzyl)-benzenesulfonamide] returned an EC50 of 100 to 2000 nM.
On the same count and under the same terms, the figure for `O=C(NCc1ccncc1)Nc1ccc(S(=O)(=O)NCc2ccc(C(F)(F)F)cc2)cc1` [4-(3-Pyridin-4-ylmethyl-ureido)-N-(4-trifluoromethyl-benzyl)-benzenesulfonamide] is 100 to 2000 nM; for `O=C(NCc1ccncc1)Nc1ccc(S(=O)(=O)NC2CCOC2)cc1` (stereo not shown) [4-(3-Pyridin-4-ylmethyl-ureido)-N-(tetrahydro-furan-3-yl)-benzenesulfonamide] it is 100 to 2000 nM; for `Cc1cccc(NS(=O)(=O)c2ccc(NC(=O)NCc3ccncc3)cc2)c1` [4-(3-Pyridin-4-ylmethyl-ureido)-N-m-tolyl-benzenesulfonamide] it is 100 to 2000 nM.
Consider `Cc1ccccc1NS(=O)(=O)c1ccc(NC(=O)NCc2ccncc2)cc1` [4-(3-Pyridin-4-ylmethyl-ureido)-N-o-tolyl-benzenesulfonamide], for which the EC50 was 100 to 2000 nM.
The same measure, in the same setting: the figure for `Cc1ccc(NS(=O)(=O)c2ccc(NC(=O)NCc3ccncc3)cc2)cc1` [4-(3-Pyridin-4-ylmethyl-ureido)-N-p-tolyl-benzenesulfonamide] is 100 to 2000 nM.
On the same count and under the same terms, to `O=C(NCc1ccncc1)Nc1ccc(S(=O)(=O)Nc2ncccn2)cc1` [4-(3-Pyridin-4-ylmethyl-ureido)-N-pyrimidin-2-yl-benzenesulfonamide] belongs 5000 to 20000 nM.
`O=C(NCc1ccncc1)Nc1ccc(S(=O)(=O)NC2CCNC2)cc1` (stereo not shown) [4-(3-Pyridin-4-ylmethyl-ureido)-N-pyrrolidin-3-yl-benzenesulfonamide]: the EC50 was 5000 to 20000 nM.
For `O=C(NCc1ccncc1)Nc1ccc(S(=O)(=O)Nc2nccs2)cc1` [4-(3-Pyridin-4-ylmethyl-ureido)-N-thiazol-2-yl-benzenesulfonamide], the EC50 lay within 100 to 2000 nM.
The same measure, in the same setting: to `O=C(NCc1ccncc1)Nc1ccc(S(=O)(=O)Nc2ccccc2Cl)cc1` [4-(3-pyridin-4-ylmethyl-ureido)-N-(2-chloro-phenyl)-benzenesulfonamide] belongs 100 to 2000 nM.
In turn, `O=C(NCc1ccncc1)Nc1ccc(S(=O)(=O)Nc2cccc(Cl)c2)cc1` [4-(3-pyridin-4-ylmethyl-ureido)-N-(3-chloro-phenyl)-benzenesulfonamide] came in with an EC50 of 100 to 2000 nM.
On the same count and under the same terms, the figure for `O=C(NCc1ccncc1)Nc1ccc(S(=O)(=O)Nc2ccc(Cl)cc2)cc1` [4-(3-pyridin-4-ylmethyl-ureido)-N-(4-chloro-phenyl)-benzenesulfonamide] is 100 to 2000 nM.
For the compound `O=C(NCc1ccncc1)Nc1ccc(NS(=O)(=O)c2ccc(Cl)cc2)cc1` [4-Chloro-N-[4-(3-pyridin-4-ylmethyl-ureido)-phenyl]-benzenesulfonamide], the EC50 was less than 100 nM.

The same assay, now with this note: Table B-3; NAMPT activation, NMN formation.
As to `CCOC(=O)c1ccc(N2CCN(Cc3ccncc3)C2=O)cc1` [4-(2-Oxo-3-pyridin-4-ylmethyl-imidazolidin-1-yl)-benzoic acid ethyl ester], the EC50 was more than 20000 nM.
Still for that read-out and setting: the figure for `O=C(O)c1ccc(N2CCN(Cc3ccncc3)C2=O)cc1` [4-(2-oxo-3-pyridin-4-ylmethyl-imidazolidin-1-yl)-benzoic acid] is more than 20000 nM; for `CCOC(=O)c1ccc(NC(=O)N(C)Cc2ccccc2)cc1` [4-(3-Benzyl-3-methyl-ureido)-benzoic acid ethyl ester] it is more than 20000 nM.
